Source: patent US8975400B2, “2,3-dihydroimidazo[1, 2-c] pyrimidin-5(1 H)-one compounds use as LP-PLA2 inhibitors” (Glaxo Group Limited, priority 2011, dated 2015)
Structures can show the parent of a compound that is named as a salt.

Tests used:
[1] = target: T1, recombinant human Lp-PLA2 (Homo sapiens, UniProt Q13093); assay: Recombinant human Lp-PLA2 assay (rhLp-PLA2, PED6 assay); format: biochemical; settings: recombinant human Lp-PLA2, PED6 substrate; upper limit for pIC50 in this assay is 9.3
T1 sequence (Q13093 22-441): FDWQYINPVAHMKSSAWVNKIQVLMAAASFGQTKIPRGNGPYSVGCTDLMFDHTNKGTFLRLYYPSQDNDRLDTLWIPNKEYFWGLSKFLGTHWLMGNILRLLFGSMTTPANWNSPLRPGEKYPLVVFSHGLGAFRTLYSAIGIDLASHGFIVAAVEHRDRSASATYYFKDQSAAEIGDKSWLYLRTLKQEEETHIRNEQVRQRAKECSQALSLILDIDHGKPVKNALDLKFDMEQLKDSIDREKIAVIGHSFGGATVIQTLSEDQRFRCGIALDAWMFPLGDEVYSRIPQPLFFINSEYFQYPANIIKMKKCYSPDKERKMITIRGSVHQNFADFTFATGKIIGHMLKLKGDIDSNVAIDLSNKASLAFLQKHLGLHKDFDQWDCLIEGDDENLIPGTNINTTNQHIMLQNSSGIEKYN
From the text: (1) Recombinant Human Lp-PLA2 Assay (rhLp-PLA2) (Also Referred to as “PED6” Assay)
N-((6-(2,4-dinitrophenyl)amino)-hexanoyl)-2-(4,4-difluoro-5,7-dimethyl-4-bora-3a,4a-diaza-s-indacene-3-pentanoyl)-1-hexadecanoyl-sn-glycero-3-phosphoethanolamine, triethylammonium salt (PED6) is a commercially available fluorescently-labeled phospholipid, which is commercially available from Invitrogene and Molecular Probes. There is a quenching […] and a Bodipy fluorescein (FL) group in the sn2 position. Upon cleavage with Lp-PLA2, the Bodipy FL group is liberated and then may result in an increase in fluorescence. Inhibitors of Lp-PLA2 therefore prevent this cleavage and no fluorescent increase is observed.
The PED6 assay was run as an unquenched 10 μL assay. The source plate containing the compounds to be tested was prepared by making 1:3 (by volume) serial dilution of the compounds within DMSO on 384-well microplate. Then, 0.01 μL of the compounds on compound source plate were transferred into 384 well Greiner 784076 (black) plates using ECHO liquid dispenser. 5 µL of recombinant human Lp-PLA2 enzyme (4 nM (or 110 pM) rhLp-PLA2 in assay buffer of 50 mM HEPES, pH 7.4, 150 mM NaCl, 1 mM CHAPS) was added to each well of the plate. Plates were centrifuged for 10 sec at 500 rpm. After 30 minutes preincubation, 5 µL of substrate (4 μM (or 5 μM) PED6 [from 5 mM DMSO stock] in assay buffer of 50 mM HEPES, pH 7.4, 150 mM NaCl, 1 mM CHAPS) was added to 384 well Greiner 784076 (black) plates. Plates were centrifuged for 10 sec at 500 rpm. The plate was covered to protect it from light and incubated for 20 min at room temperature. The plates were read for fluorescence intensity at ex: 480/em: 540 using ViewLux microplate imager for Envision spectrofluroimeters pIC50 data, curve and QC analysis was conducted by using XL fit module in Excel.
The compounds described below were tested generally according to the PED6 assay described above.

Lp-PLA2 in human plasma = target: T2, Lp-PLA2 in human plasma (Homo sapiens, UniProt Q13093); assay: Lp-PLA2 human plasma assay (Thio-PAF assay); format: biochemical; settings: pooled human plasma, 2-thio-PAF substrate; read-out: pIC50 in the thio-PAF assay (converted)
T2 construct: This assay may detect the activity of Lp-PLA2 in human plasma; from tissue; host or cells: pooled human plasma
T2 sequence (Q13093 22-441): T1 sequence (Q13093 22-441)
From the text: (3) Lipoprotein-Associated Phospholipase A2 (Lp-PLA2) Human Plasma Assay (Also Referred to as “Thio-PAF Assay”)
The human plasma assay utilizes a thioester analog of PAF (phosphatidylcholine), where hydrolysis yields to the formation of a phospholipid containing a free thiol group. The amount of thiol is quantitated continuously by reacting with CPM (7-diethylamino-3-(4′-maleimidylphenyl)-4-methylcoumarin), a maleimide which increases in fluoresence after Michael addition of thiols. This assay may detect the activity of Lp-PLA2 in human plasma, as determined by specific inhibition by Lp-PLA2 inhibitors.
The thio-PAF assay was run as a quenched 15 μL assay. Compounds source plate was prepared by making 1:3 (by volume) serial dilution of the compounds into pure DMSO on 384-well microplate. 0.01 μL of compounds on compound source plate were transferred to 384 well Greiner 784076 (black) low-volume plates by ECHO liquid dispenser. 8 μL pooled human plasma, which was previously aliquoted and frozen, was added. Plates were centrifuged for 10 sec at 500 rpm. After 30 minutes preincubation, 2 μL of substrate solution comprising 2.5 mM 2-thio-PAF [from ethanol stock], 32 μM CPM [from a DMSO stock] and 3.2 mM NEM (N-ethylmaleimide) [made fresh daily in DMSO] in assay buffer of 50 mM HEPES, pH 7.4, 150 mM NaCl, 1 mM CHAPS was added to 384 well Greiner 784076 (black) low-volume plates by BRAVO liquid handling station. After 2 mins, reaction was quenched with 5 μL of 5% aqueous trifluoroacetic acid (TFA). Plates were covered to protect from light and incubated for 40 min at room temperature. Plates were read at ex: 380/em: 485 using-Envision microplate reader. pIC50 data, curve and QC analysis was conducted by using XLFit module in Excel.

SMILES	IC50 [1]	IC50 (Lp-PLA2 in human plasma)
N#Cc1cc(COc2cc3n(c(=O)n2)CCN3)ccc1Oc1ccc(C#N)c(C(F)(F)F)c1 [Example 88, 4-(2-cyano-4-(((5-oxo-1,2,3,5-tetrahydroimidazo[1,2-c]pyrimidin-7-yl)oxy)methyl)p-henolxy)-2-(trifluoromethyl)benzonitrile]	2 nM	≤ 100 nM
CN1CCn2c1cc(OCc1ccc(Oc3cc(F)c(F)c(F)c3)c(F)c1)nc2=O [Example E42, 7-((3-fluoro-4-(3,4,5-trifluorophenoxy)benzyl)oxy)-1-methyl-2,3-dihydroimi-dazo[1,2-c]pyrimidin-5(1H)-one]	≤ 10 nM	≤ 1000 nM
CN1CCn2c1cc(OCc1ccc(Oc3ccc(Br)c(F)c3)c(C#N)c1)nc2=O [Example E70, 2-(4-bromo-3-fluorophenoxy)-5-(((I-methyl-5-oxo-1,2,3,5-tetrahydroimidazo[1,2-c]pyrimidin-7-yl)oxy)methyl)benzonitrile]	≤ 1 nM	≤ 1000 nM
CN1CCn2c1cc(OCc1ccc(Oc3ccc(C#N)c(F)c3)c(F)c1)nc2=O [Example 136, 2-fluoro-4-(2-fluoro-4-(((1-methyl-5-oxo-1,2,3,5-tetrahydroimidazo[1,2-c]pyrimidin-7-yl)oxy)methyl)phenoxy)benzonitrile]	≤ 10 nM	≤ 1000 nM
CN1CCn2c1cc(OCc1ccc(Oc3ccc(C(F)(F)F)nc3)c(F)c1)nc2=O [Example E3, 7-((3-fluoro-4-((6-(trifluoromethyl)pyridin-3-yl)oxy)benzyl)oxy)-1-methyl-2,3-dihydroimidazo[1,2-c]pyrimidin-5(1H)-one]	≤ 10 nM	≤ 1000 nM
CN1CCn2c1cc(OCc1ccc(Oc3ccnc(Cl)c3)c(F)c1)nc2=O [Example 109, 7-((4-((2-chloropyridin-4-yl)oxy)-3-fluorobenzyl)oxy)-1-methyl-2,3-dihydroimidaz-o[1,2-c]pyrimidin-5(1H)-one]	≤ 10 nM	≤ 1000 nM
CN1CCn2c1cc(OCc1ccc(Oc3cc(F)c(F)c(F)c3)c(C#N)c1)nc2=O [Example E38, 5-(((1-methyl-5-oxo-1,2,3,5-tetrahydroimidazo[1,2-c]pyrimidin-7-yl)oxy)methyl)-2-(3,4,5-trifluorophenoxy)benzonitrile, trifluoroacetic acid salt]	≤ 10 nM	≤ 1000 nM
CN1CCn2c1cc(OCc1ccc(Oc3ccnc(C#N)c3)c(F)c1)nc2=O [Example 129, 4-(2-fluoro-4-(((1-methyl-5-oxo-1,2,3,5-tetrahydroimidazo[1,2-c]pyrimidin-7-yl)oxy)methyl)phenoxy)picolinonitrile, trifluoroacetic acid salt]	≤ 10 nM	≤ 1000 nM
N#Cc1ccc(Oc2ccc(COc3cc4n(c(=O)n3)CCN4)cc2C#N)cc1F [Example E64, 4-(2-cyano-4-(((5-oxo-1,2,3,5-tetrahydroimidazo[1,2-c]pyrimidin-7-yl)oxy)methyl)p-henoxy)-2-fluorobenzonitrile]	≤ 10 nM	≤ 100 nM
O=c1nc(OCc2ccc(Oc3ccnc(C(F)(F)F)c3)c(F)c2)cc2n1CCN2 [Example 119, 7-((3-fluoro-4-((2-(trifluoromethyl)pyridin-4-yl)oxy)benzyl)oxy)-2,3-dihydroimidazo[1,2-c]pyrimidin-5(1H)-one]	2.51 nM	≤ 100 nM
CN1CCn2c1cc(OCc1ccc(Oc3ccc(Cl)c(C#N)c3)c(F)c1)nc2=O [Example 125, 2-chloro-5-(2-fluoro-4-(((1-methyl-5-oxo-1,2,3,5-tetrahydroimidazo[1,2-c]pyrimidin-7-yl)oxy)methyl)phenoxy)benzonitrile]	≤ 1 nM	≤ 100 nM
N#Cc1cc(COc2cc3n(c(=O)n2)CCN3)ccc1Oc1ccc(C(F)(F)F)c(F)c1 [Example E65, 2-(3-fluoro-4-(trifluoromethyl)phenoxy)-5-(((5-oxo-1,2,3,5-tetrahydroimidazo[1,2-c]pyrimidin-7-yl)oxy)methyl)benzonitrile]	0.631 nM	≤ 100 nM

Next, values leading:

IC50 [1]	IC50 (Lp-PLA2 in human plasma)	SMILES
≤ 10 nM	≤ 100 nM	N#Cc1cc(COc2cc3n(c(=O)n2)CCN3)ccc1Oc1ccnc(C(F)(F)F)c1 [Example 91, 5-(((5-oxo-1,2,3,5-tetrahydroimidazo[1,2-c]pyrimidin-7-yl)oxy)methyl)-2-((2-(trifluoromethyl)pyridin-4-yl)oxy)benzonitrile]
≤ 1 nM	≤ 1000 nM	N#Cc1cc(COc2cc3n(c(=O)n2)CCN3)ccc1Oc1ccc(F)c(F)c1 [Example E72, 2-(3,4-difluorophenoxy)-5-(((5-oxo-1,2,3,5-tetrahydroimidazo[1,2-c]pyrimidin-7-yl)oxy)methyl)benzonitrile, trifluoroacetic acid salt]
≤ 10 nM	≤ 1000 nM	CN1CCn2c1cc(OCc1ccc(Oc3ccc(F)c(Cl)c3)c(F)c1)nc2=O [Example E15, 7-((4-(3-chloro-4-fluorophenoxy)-3-fluorobenzyl)oxy)-1-methyl-2,3-dihydroimida-zo[1,2-c]pyrimidin-5(1H)-one]
≤ 1 nM	≤ 100 nM	CN1CCn2c1cc(OCc1cc(F)c(Oc3ccc(Cl)c(F)c3)c(F)c1)nc2=O [Example E86, 7-((4-(4-chloro-3-fluorophenoxy)-3,5-difluorobenzyl)oxy)-1-methyl-2,3-dihydroimi-dazo[1,2-c]pyrimidin-5(1H)-one]
≤ 10 nM	≤ 100 nM	CN1CCn2c1cc(OCc1ccc(Oc3cccc(C(F)(F)F)c3)c(C#N)c1)nc2=O [Example E1, 5-(((1-methyl-5-oxo-1,2,3,5-tetrahydroimidazo[1,2-c]pyrimidin-7-yl)oxy)methyl)-2-(3-(trifluoromethyl)phenoxy)benzonitrile]
0.631 nM	≤ 100 nM	CN1CCn2c1cc(OCc1ccc(Oc3ccc(C#N)c(C(F)(F)F)c3)c(F)c1)nc2=O [Example E83, 4-(2-fluoro-4-(((1-methyl-5-oxo-1,2,3,5-tetrahydroimidazo[1,2-c]pyrimidin-7-yl)oxy)methyl)phenoxy)-2-(trifluoromethyl)benzonitrile, trifluoroacetic acid salt]
≤ 1 nM	≤ 100 nM	CN1CCn2c1cc(OCc1ccc(Oc3cc(F)cc(C(F)(F)F)c3)c(C#N)c1)nc2=O [Example 116]
≤ 1 nM	≤ 100 nM	CN1CCn2c1cc(OCc1cc(F)c(Oc3ccc(C(F)(F)F)c(F)c3)c(F)c1)nc2=O [Example 140, 7-((3,5-difluoro-4-(3-fluoro-4-(trifluoromethyl)phenoxy)benzyl)oxy)-1-methyl-2,3-dihydroimidazo[1,2-c]pyrimidin-5(I H)-one]
